Measured values from patent US8420851B2, “Selective TR-β 1 agonist” (Cadila Healthcare Limited, priority 2006, dated 2013).

Legend:
TR-α = biological target: T1, TR-α (Homo sapiens, UniProt P10827); assay: In vitro TR-α activity (in-house protocol); type: cell-based
T1 sequence (P10827 1-410 isoform P10827-2): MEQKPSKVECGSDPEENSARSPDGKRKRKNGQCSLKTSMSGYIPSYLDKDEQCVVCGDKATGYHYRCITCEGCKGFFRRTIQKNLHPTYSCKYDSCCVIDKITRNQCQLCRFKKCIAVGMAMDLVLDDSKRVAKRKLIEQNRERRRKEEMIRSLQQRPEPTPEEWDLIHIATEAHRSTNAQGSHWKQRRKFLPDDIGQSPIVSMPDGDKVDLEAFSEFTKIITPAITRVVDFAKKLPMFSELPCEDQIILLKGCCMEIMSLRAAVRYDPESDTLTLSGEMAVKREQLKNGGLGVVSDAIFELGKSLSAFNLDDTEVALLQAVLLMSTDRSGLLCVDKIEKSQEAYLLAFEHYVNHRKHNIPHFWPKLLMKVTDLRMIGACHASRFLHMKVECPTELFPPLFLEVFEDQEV
Procedure: (§1) Invitro TR-α & TR-β activities were determined as per in-house protocols and the results of representative compounds are provided in tables 1 & 2 below as a proof of the efficacies of the novel class of compounds disclosed above.

TR-β = biological target: T2, TR-β (Homo sapiens, UniProt P10828); assay: In vitro TR-β activity (in-house protocol); type: cell-based; conditions: for fold induction at 0.01 µM: Conc. 10 nM; for fold induction at 0.01 µM / fold induction at 0.1 µM / fold induction at 1 µM / fold induction at 0.001 µM: read-out: TR-β Fold Induction w.r.t T3(100 nm); for fold induction at 0.1 µM: Conc. 100 nM; for fold induction at 1 µM: Conc. 1000 nM; for fold induction at 0.001 µM: Conc. 1 nM
T2 sequence (P10828 1-461): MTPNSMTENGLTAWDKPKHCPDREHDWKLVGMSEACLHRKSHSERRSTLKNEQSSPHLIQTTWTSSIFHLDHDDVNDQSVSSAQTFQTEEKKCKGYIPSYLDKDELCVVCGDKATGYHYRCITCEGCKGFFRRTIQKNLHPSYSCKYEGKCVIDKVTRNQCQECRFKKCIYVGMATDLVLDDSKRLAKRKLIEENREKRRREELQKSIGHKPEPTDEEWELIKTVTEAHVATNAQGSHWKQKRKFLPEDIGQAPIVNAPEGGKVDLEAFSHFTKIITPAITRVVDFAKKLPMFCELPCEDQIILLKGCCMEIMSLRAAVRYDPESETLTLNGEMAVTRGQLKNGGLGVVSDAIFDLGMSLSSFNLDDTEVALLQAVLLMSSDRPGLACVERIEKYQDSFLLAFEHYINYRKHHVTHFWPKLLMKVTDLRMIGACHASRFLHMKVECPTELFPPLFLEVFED
Procedure: as §1

Compound | EC50 (TR-α) [nM] | EC50 (TR-β) [nM] | TR-α Fold Induction w.r.t T3(100 nm) (TR-α; Conc. 10 nM) | TR-α Fold Induction w.r.t T3(100 nm) (TR-α; Conc. 100 nM) | TR-α Fold Induction w.r.t T3(100 nm) (TR-α; Conc. 1000 nM) | fold induction at 0.01 µM (TR-β) | fold induction at 0.1 µM (TR-β) | fold induction at 1 µM (TR-β) | TR-α Fold Induction w.r.t T3(100 nm) (TR-α; Conc. 1 nM) | fold induction at 0.001 µM (TR-β)
CCOC(=O)N(CC(=O)O)c1cc(Cl)c(Oc2ccc(O)c(C(C)C)c2)c(Cl)c1 [Example 1, {[3,5-Dichloro-4-(4-hydroxy-3-isopropyl-phenoxy)-phenyl]-ethoxycarbonyl-amino}-acetic acid] | 440 | 146 |  |  |  |  |  |  |  | 
CCOC(=O)N(CC(=O)O)c1cc(Cl)c(Oc2ccc(O)c(C(C)CC)c2)c(Cl)c1 (stereo not shown) [Example 2, {[4-(3-sec-Butyl-4-hydroxy-phenoxy)-3,5-dichloro-phenyl]-ethoxycarbonyl-amino}-acetic acid] | 119 | 162 |  |  |  |  |  |  |  | 
CCOC(=O)N(CC(=O)O)c1cc(Cl)c(Oc2ccc(O)c(Cc3ccccc3)c2)c(Cl)c1 [Example 3, {[4-(3-Benzyl-4-hydroxy-phenoxy)-3,5-dichloro-phenyl]-ethoxycarbonyl-amino}-acetic acid] | 274 | 89 |  |  |  |  |  |  |  | 
CCOC(=O)N(CC(=O)O)c1cc(Cl)c(Oc2ccc(O)c(C(C)(C)C)c2)c(Cl)c1 [Example 13, {[4-(3-tert-Butyl-4-hydroxy-phenoxy)-3,5-dichloro-phenyl]-ethoxycarbonyl-amino}-acetic acid] |  |  | 49.80 | 96.60 | 72.90 | 44.2 | 80.6 | 75 |  | 
CCOC(=O)N(CC(=O)O)c1cc(Cl)c(Oc2ccc(O)c(-c3ccccc3)c2)c(Cl)c1 [Example 14, {[3,5-Dichloro-4-(6-hydroxy-biphenyl-3-yloxy)-phenyl]-ethoxycarbonyl-amino}-acetic acid] |  |  | 11.10 | 36.30 | 45.90 | 16.4 | 58.5 | 77.3 |  | 
CCOC(=O)N(CC(=O)O)c1cc(Cl)c(Oc2ccc(O)c(C(=O)c3ccc(F)cc3)c2)c(Cl)c1 [Example 15, ({3,5-Dichloro-4-[3-(4-fluoro-benzoyl)-4-hydroxy-phenoxy]-phenyl}-ethoxycarbonyl-amino)-acetic acid] |  |  | 11.34 | 39.66 | 33.74 | 23.5 | 70.5 | 66.8 |  | 
CCOC(=O)N(CC(=O)O)c1cc(Cl)c(Oc2ccc(O)c(C(=O)c3ccc(Cl)s3)c2)c(Cl)c1 [Example 17, ({3,5-Dichloro-4-[3-(5-chloro-thiophene-2-carbonyl)-4-hydroxy-phenoxy]-phenyl}-ethoxycarbonyl-amino)-acetic acid] |  |  | 21.19 | 51.82 | 53.12 | 27.7 | 72.8 | 77.9 |  | 
CCOC(=O)N(CC(=O)O)c1cc(C)c(Oc2ccc(O)c(C(C)CC)c2)c(C)c1 (stereo not shown) [Example 18, {[4-(3-sec-Butyl-4-hydroxy-phenoxy)-3,5-dimethyl-phenyl]-ethoxycarbonyl-amino}-acetic acid] |  |  | 8.90 | 12.97 | 16.87 | 18.6 | 23 | 42.6 | 6.62 | 9.44
CCC(C)c1cc(Oc2c(Cl)cc(N(CC(=O)O)C(=O)Oc3ccc(O)cc3)cc2Cl)ccc1O (stereo not shown) [Example 23, [[4-(3-sec-Butyl-4-hydroxy-phenoxy)-3,5-dichloro-phenyl]-(4-hydroxy-phenoxycarbonyl)-amino]-acetic acid] | 9.26 | 2.6 |  |  |  |  |  |  |  | 
CC(C)c1cc(Oc2c(Cl)cc(N(CC(=O)O)C(=O)Oc3ccc(O)cc3)cc2Cl)ccc1O [Example 32, [[3,5-Dichloro-4-(4-hydroxy-3-isopropyl-phenoxy)-phenyl]-(4-hydroxy-phenoxycarbonyl)-amino]-acetic acid] |  |  | 74.20 | 87.50 | 72.37 | 73.7 | 119 | 94.9 | 23.36 | 24.7

The next lines start with the values.

EC50 (TR-α) [nM] | EC50 (TR-β) [nM] | TR-α Fold Induction w.r.t T3(100 nm) (TR-α; Conc. 10 nM) | TR-α Fold Induction w.r.t T3(100 nm) (TR-α; Conc. 100 nM) | TR-α Fold Induction w.r.t T3(100 nm) (TR-α; Conc. 1000 nM) | fold induction at 0.01 µM (TR-β) | fold induction at 0.1 µM (TR-β) | fold induction at 1 µM (TR-β) | TR-α Fold Induction w.r.t T3(100 nm) (TR-α; Conc. 1 nM) | fold induction at 0.001 µM (TR-β) | Compound
 |  | 15.74 | 21.47 | 18.49 | 40.7 | 87.7 | 81.2 | 10.42 | 19.9 | CCOC(=O)N(CC(=O)O)c1cc(Cl)c(Oc2ccc(O)c(C(=O)c3ccc(Cl)cc3)c2)c(Cl)c1 [Example 20, ({3,5-Dichloro-4-[3-(4-chloro-benzoyl)-4-hydroxy-phenoxy]-phenyl}-ethoxycarbonyl-amino)-acetic acid]
 |  | 56.81 | 110.66 | 93.53 | 153 | 202 | 148 | 17.17 | 33.4 | CCC(C)c1cc(Oc2c(C)cc(N(CC(=O)O)CC(=O)O)cc2C)ccc1O (stereo not shown) [Example 21, {[4-(3-sec-Butyl-4-hydroxy-phenoxy)-3,5-dimethyl-phenyl]-carboxymethyl-amino}-acetic acid]
 |  | 20.00 | 50.00 | 70.00 | 40 | 100 | 75 | 10.00 | 20 | CCOC(=O)N(CC(=O)O)c1cc(Cl)c(Oc2ccc(O)c(C(=O)c3ccc(C(C)(C)C)cc3)c2)c(Cl)c1 [Example 24, ({4-[3-(4-tert-Butyl-benzoyl)-4-hydroxy-phenoxy]-3,5-dichloro-phenyl}-ethoxycarbonyl-amino)-acetic acid]
 |  | 8.55 | 12.70 | 7.15 | 26.3 | 70.1 | 51.7 | 4.22 | 10.9 | CCOC(=O)N(CC(=O)O)c1cc(Cl)c(Oc2ccc(O)c(C(=O)c3cccc(Cl)c3)c2)c(Cl)c1 [Example 25, ({3,5-Dichloro-4-[3-(3-chloro-benzoyl)-4-hydroxy-phenoxy]-phenyl}-ethoxycarbonyl-amino)-acetic acid]
176 | 28.1 |  |  |  |  |  |  |  |  | CCC(C)c1cc(Oc2c(Cl)cc(N(CC(=O)O)CC(=O)O)cc2Cl)ccc1O (stereo not shown) [Example 26, {[4-(3-sec-Butyl-4-hydroxy-phenoxy)-3,5-dichloro-phenyl]-carboxymethyl-amino}-acetic acid]
 |  | 14.71 | 25.77 | 33.47 | 20.9 | 45.4 | 46.1 | 8.97 | 10.4 | O=C(O)CN(CC(=O)O)c1cc(Cl)c(Oc2ccc(O)c(C(=O)c3ccc(Cl)cc3)c2)c(Cl)c1 [Example 28, (Carboxymethyl-{3,5-dichloro-4-[3-(4-chloro-benzoyl)-4-hydroxy-phenoxy]-phenyl}-amino)-acetic acid]
 |  | 17.06 | 50.99 | 46.21 | 27.8 | 64.3 | 75.2 | 8.17 | 12.1 | CC(C)c1cc(Oc2c(Cl)cc(N(CC(=O)O)CC(=O)O)cc2Cl)ccc1O [Example 31, {Carboxymethyl-[3,5-dichloro-4-(4-hydroxy-3-isopropyl-phenoxy)-phenyl]-amino}-acetic acid]
 |  | 13.90 | 25.46 | 46.33 | 11.9 | 26 | 46.8 | 9.66 | 8.63 | O=C(O)CN(CC(=O)O)c1cc(Cl)c(Oc2ccc(O)c(S(=O)(=O)N3CCCCC3)c2)c(Cl)c1 [Example 33, (Carboxymethyl-{3,5-dichloro-4-[4-hydroxy-3-(piperidine-1-sulfonyl)-phenoxy]-phenyl}-amino)-acetic acid]
